Source: PMC11889359, “Site-Specific Competitive Kinase Inhibitor Target Profiling Using Phosphonate Affinity Tags” (Molecular & Cellular Proteomics : MCP, 2025)
Where two headings read alike, the source gives them in different places.

Key:
Experiment in all cases: Competitive site-specific PhosID-ABPP with XO44 in intact A549 cells
Assay type in all cases: binding
[1] = target: T1, inosine-5′-monophosphate dehydrogenase 2 (IMPDH2) (Homo sapiens, UniProt P12268); details: apparent IC50, competition with XO44 on lysine 450, n = 3, read-out: IC50 IMPDH2;K450
T1 construct: endogenous in cells; host or cells: cultured cells treated intact (A549 per the earlier reading)
Description: (§1) 1e^6 cells were plated in 15 cm plates (Greiner) 3 days before treatment and kept in a humidified atmosphere with 5% CO2 at 37 °C. The growth medium was replaced by 10 ml treatment [DMEM with 0.5% FBS and 100 units/ml PS supplemented with the corresponding concentration of NVP-BHG712 (Sigma-Aldrich) or DMSO] and incubated at 37 °C, 5% CO2 for 3 h. Then, 10 μl 25 mM XO44 (PF-6808472, Sigma-Aldrich) was added directly to the medium and swirled to enable dissolution. Subsequently, the cells were incubated at 37 °C, 5% CO2 for 4 h. The samples for Supplemental Fig. S1 were generated by directly incubating with 25 μM XO44-containing growth medium for 4 h.
(§2) After treatment, the cells were washed with ice-cold DPBS and harvested using a cell scraper in 1 ml ice-cold DPBS. Then, the cell suspension was spun down at 2000g for 1 min, and the supernatant was aspirated. The cell pellet was snap-frozen in liquid nitrogen and stored at −80 °C for later use.
(§3) Cell pellets were lysed in 500 μl lysis buffer per 15 cm plate of cells, consisting of 50 mM Hepes (Sigma-Aldrich, pH 7.5), 0.5% NP-40 (Applichem), 0.2% SDS (Gen-Apex), 2 mM MgCl2 (Sigma-Aldrich), 10 mM NaCl (Merck), 1× protease inhibitor cocktail (Roche), and 0.5 μl/ml Benzonase (Millipore). Cell lysates were incubated at room temperature for 15 min to allow DNA cleavage. Cell debris and DNA were spun down for 30 min at 20,567g at 16 °C. The supernatant was collected, and the protein concentration was determined by a bicinchoninic acid assay (Thermo Fisher Scientific).
(§4) The copper(I)-catalyzed azide-alkyne cycloaddition (CuAAC) was performed on cellular lysates in 2 M urea (Merck) in 1× 50 mM Hepes (pH 7.5). CuAAC components were added in the following order: 5 mM tris(3-hydroxypropyltriazolylmethyl)amine (Lumiprobe), 2.5 mM CuSO4 5·H2O (Sigma-Aldrich), 500 μM phosphonate-azide (prepared as described in van Bergen et al., 2023 ([28])), and 25 mM sodium ascorbate (Sigma-Aldrich). Samples were incubated for 2 h at room temperature while rotating. Methanol–chloroform precipitation was performed to remove the CuAAC components, and the air-dried pellets were resuspended in 8 M urea and sonicated in a bioruptor (Diagenode) with the high amplitude setting for 10 min with cycles of 30 s on and 30 s off.
(§5) Clicked and dissolved protein samples were diluted to 4M urea with 50 mM ammonium bicarbonate (pH 8, AmBic, Sigma-Aldrich). The proteins were reduced with 4 mM DTT (Sigma-Aldrich) for 60 minutes at room temperature and alkylated in the dark using 8 mM iodoacetamide (Sigma-Aldrich) for 30 min. Residual iodoacetamide was quenched by adding DTT to a final concentration of 4 mM.
(§6) Next, samples were diluted 2× with 50 mM AmBic and digested with LysC (1:75 enzyme to protein ratio, Wako) for 4 h at 37 °C. Finally, proteins were digested overnight using Trypsin (1:50, enzyme to protein ratio, Sigma-Aldrich) at 37 °C. Proteolysis with chymotrypsin was performed similarly to the trypsin digestion, only replacing both proteolytic enzymes with α-chymotrypsin (bovine, 1:75, enzyme to protein ratio, Sigma-Aldrich) overnight at 37 °C. Digested material was desalted using 3 cc C18 Seppak cartridges (Waters) and air dried using a vacuum centrifuge.
(§7) For the digestion with pepsin, protease incubation (Porcine, 1:50, enzyme to protein ratio, Sigma-Aldrich) was performed for 4 h at 37 °C in 40 mM HCl (pH 2). Digested material was directly desalted using 3 cc C18 Seppak cartridges and air dried using a vacuum centrifuge.
(§8) Samples were dephosphorylated prior to immobilized metal affinity chromatography (IMAC) enrichment. Desalted peptides were dissolved in 1× rCutSmart buffer (pH 8, New England BioLabs) and incubated with 50 units of alkaline phosphatase (calf intestinal, QuickCIP, New England BioLabs) overnight at 37 °C while shaking. After dephosphorylation, all peptides were again desalted using 3 cc C18 Seppak cartridges and air-dried using a vacuum centrifuge. […]

EphA2 = target: T2, EphA2 (Homo sapiens, UniProt P29317); details: apparent IC50, 3 h inhibitor then 25 μM XO44 4 h
T2 construct: endogenous in cells; host or cells: cultured cells treated intact (A549 per the earlier reading)
Description: as §1, §2, §3, §4, §5, §6, §7, §8

JAK2 = target: T3, JAK2 (Homo sapiens, UniProt O60674); details: 0.1 nM to 25 µM inhibitor, trypsin and pepsin
T3 construct: endogenous in cells; host or cells: cultured cells treated intact (A549 per the earlier reading)
Description: as §1, §2, §3, §4, §5, §6, §7, §8

JAK1 = target: T4, JAK1 (Homo sapiens, UniProt P23458); details: 0.1 nM to 25 µM inhibitor, trypsin and pepsin
T4 construct: endogenous in cells; host or cells: cultured cells treated intact (A549 per the earlier reading)
Description: as §1, §2, §3, §4, §5, §6, §7, §8

[2] = target: T5, neurotrophic receptor tyrosine kinase 3 (NTRK3) (Homo sapiens, UniProt Q16288); details: 0.1 nM to 25 µM inhibitor, pepsin
T5 construct: endogenous in cells; host or cells: cultured cells treated intact (A549 per the earlier reading)
Description: as §1, §2, §3, §4, §5, §6, §7, §8

[3] = target: T6, epithelial discoidin domain-containing receptor 1 (DDR1) (Homo sapiens, UniProt Q08345); details: apparent IC50, pepsin-based analysis, n = 3, read-out: IC50 DDR1;K655
T6 construct: endogenous in cells; host or cells: cultured cells treated intact (A549 per the earlier reading)
Description: as §1, §2, §3, §4, §5, §6, §7, §8

[4] = target: T7, proto-oncogene tyrosine-protein kinase src (SRC) (Homo sapiens, UniProt P12931); details: 0.1 nM to 25 µM inhibitor, trypsin and pepsin
T7 construct: endogenous in cells; host or cells: cultured cells treated intact (A549 per the earlier reading)
Description: as §1, §2, §3, §4, §5, §6, §7, §8

MAP3K20 = target: T8, MAP3K20 (Homo sapiens, UniProt Q9NYL2); details: apparent IC50, unique peptide, n = 3, read-out: IC50 MAP3K20;K45
T8 construct: endogenous in cells; host or cells: cultured cells treated intact (A549 per the earlier reading)
Description: as §1, §2, §3, §4, §5, §6, §7, §8

LYN = target: T9, LYN (Homo sapiens, UniProt P07948); details: apparent IC50, pepsin-based analysis, n = 3, read-out: IC50 LYN;K275
T9 construct: endogenous in cells; host or cells: cultured cells treated intact (A549 per the earlier reading)
Description: as §1, §2, §3, §4, §5, §6, §7, §8

T2 sequence (P29317 24-976): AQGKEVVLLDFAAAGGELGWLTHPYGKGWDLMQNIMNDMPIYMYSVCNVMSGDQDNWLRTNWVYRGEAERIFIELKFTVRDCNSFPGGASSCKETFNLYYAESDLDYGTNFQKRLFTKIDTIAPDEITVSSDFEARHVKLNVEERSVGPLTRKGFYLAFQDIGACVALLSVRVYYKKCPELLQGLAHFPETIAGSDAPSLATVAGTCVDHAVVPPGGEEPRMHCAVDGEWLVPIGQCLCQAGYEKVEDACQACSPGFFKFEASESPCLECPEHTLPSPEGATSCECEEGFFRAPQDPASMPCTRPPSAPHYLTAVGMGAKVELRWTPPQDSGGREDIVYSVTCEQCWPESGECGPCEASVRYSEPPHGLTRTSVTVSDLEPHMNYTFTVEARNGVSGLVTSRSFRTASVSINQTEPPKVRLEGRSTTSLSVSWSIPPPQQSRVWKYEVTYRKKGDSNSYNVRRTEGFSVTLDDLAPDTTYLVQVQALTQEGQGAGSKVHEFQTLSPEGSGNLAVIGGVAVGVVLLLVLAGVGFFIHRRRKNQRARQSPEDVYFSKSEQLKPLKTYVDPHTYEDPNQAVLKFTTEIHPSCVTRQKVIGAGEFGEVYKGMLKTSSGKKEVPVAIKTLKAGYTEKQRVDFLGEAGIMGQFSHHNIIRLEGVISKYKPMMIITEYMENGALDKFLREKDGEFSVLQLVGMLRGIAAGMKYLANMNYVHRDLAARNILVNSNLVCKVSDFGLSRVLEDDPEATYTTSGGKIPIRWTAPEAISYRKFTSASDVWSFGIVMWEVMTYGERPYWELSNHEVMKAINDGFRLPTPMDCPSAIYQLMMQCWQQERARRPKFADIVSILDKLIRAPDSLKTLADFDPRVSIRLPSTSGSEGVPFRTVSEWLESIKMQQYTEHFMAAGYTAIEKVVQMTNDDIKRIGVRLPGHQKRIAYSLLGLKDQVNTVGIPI
T6 sequence (Q08345 19-913): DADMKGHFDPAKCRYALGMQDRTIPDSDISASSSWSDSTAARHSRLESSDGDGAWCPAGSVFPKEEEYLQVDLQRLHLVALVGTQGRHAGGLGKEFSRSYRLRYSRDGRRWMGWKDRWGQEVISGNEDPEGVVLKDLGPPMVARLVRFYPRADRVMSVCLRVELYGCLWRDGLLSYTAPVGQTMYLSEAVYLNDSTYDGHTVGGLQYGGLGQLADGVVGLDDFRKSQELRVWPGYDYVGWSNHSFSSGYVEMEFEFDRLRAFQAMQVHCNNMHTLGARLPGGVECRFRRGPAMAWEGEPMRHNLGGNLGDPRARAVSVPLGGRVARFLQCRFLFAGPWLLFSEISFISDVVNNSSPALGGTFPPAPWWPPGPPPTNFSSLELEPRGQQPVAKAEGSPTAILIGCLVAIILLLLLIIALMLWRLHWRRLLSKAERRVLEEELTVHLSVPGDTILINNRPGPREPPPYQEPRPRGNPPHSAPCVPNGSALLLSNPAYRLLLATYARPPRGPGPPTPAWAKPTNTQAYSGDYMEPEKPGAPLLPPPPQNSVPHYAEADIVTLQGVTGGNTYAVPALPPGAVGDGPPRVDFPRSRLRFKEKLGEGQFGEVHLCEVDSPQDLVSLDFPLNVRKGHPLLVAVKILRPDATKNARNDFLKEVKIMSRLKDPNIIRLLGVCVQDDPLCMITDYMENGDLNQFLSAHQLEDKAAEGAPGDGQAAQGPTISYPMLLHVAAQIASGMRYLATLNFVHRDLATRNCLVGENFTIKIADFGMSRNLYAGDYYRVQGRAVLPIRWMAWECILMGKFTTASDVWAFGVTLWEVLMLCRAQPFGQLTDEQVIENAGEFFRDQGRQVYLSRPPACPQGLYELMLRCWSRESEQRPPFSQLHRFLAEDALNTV
T3 sequence (O60674 whole entry): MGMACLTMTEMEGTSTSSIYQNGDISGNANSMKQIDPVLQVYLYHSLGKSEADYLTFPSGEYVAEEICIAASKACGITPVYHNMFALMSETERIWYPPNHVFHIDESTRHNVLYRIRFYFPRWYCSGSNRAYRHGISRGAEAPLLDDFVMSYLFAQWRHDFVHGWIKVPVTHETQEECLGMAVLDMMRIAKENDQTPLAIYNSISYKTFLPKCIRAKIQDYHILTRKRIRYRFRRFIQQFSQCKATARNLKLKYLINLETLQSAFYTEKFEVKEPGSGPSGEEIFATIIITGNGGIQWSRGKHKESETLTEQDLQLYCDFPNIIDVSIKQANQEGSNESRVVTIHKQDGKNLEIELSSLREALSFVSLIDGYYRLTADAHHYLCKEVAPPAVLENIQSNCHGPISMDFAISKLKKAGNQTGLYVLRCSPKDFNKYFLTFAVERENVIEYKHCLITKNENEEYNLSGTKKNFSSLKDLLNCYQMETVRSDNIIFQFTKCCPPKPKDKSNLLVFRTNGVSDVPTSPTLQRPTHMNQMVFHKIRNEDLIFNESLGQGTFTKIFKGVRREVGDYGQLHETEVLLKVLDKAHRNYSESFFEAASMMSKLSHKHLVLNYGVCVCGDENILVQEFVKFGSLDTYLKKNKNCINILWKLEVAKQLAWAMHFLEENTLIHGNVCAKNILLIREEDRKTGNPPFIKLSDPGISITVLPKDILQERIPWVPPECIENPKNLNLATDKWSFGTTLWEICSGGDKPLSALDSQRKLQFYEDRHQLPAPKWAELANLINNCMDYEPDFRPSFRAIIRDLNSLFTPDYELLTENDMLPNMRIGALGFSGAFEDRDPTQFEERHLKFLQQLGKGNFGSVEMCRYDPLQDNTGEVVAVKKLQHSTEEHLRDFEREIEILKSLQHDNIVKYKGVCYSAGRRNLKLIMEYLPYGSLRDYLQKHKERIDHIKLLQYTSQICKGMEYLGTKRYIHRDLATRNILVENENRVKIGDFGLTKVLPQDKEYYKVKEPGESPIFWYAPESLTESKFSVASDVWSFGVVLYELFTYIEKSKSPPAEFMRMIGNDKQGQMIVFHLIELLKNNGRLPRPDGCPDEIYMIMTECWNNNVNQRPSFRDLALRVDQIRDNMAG
T1 sequence (P12268 2-514 limits assumed): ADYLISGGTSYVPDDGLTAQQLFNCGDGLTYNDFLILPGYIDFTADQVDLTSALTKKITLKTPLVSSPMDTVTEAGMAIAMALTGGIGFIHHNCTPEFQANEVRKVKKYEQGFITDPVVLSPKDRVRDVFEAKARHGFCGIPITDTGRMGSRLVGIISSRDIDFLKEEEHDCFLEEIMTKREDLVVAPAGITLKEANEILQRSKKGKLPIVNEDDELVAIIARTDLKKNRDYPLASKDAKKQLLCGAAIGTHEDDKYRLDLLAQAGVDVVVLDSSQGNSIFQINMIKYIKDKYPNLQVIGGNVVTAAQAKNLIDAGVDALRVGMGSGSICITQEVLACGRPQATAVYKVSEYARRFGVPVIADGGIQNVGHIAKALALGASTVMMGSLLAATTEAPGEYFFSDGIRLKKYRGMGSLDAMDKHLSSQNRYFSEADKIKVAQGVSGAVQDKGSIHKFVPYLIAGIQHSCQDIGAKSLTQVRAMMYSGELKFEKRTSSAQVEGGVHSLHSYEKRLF
T4 sequence (P23458 whole entry): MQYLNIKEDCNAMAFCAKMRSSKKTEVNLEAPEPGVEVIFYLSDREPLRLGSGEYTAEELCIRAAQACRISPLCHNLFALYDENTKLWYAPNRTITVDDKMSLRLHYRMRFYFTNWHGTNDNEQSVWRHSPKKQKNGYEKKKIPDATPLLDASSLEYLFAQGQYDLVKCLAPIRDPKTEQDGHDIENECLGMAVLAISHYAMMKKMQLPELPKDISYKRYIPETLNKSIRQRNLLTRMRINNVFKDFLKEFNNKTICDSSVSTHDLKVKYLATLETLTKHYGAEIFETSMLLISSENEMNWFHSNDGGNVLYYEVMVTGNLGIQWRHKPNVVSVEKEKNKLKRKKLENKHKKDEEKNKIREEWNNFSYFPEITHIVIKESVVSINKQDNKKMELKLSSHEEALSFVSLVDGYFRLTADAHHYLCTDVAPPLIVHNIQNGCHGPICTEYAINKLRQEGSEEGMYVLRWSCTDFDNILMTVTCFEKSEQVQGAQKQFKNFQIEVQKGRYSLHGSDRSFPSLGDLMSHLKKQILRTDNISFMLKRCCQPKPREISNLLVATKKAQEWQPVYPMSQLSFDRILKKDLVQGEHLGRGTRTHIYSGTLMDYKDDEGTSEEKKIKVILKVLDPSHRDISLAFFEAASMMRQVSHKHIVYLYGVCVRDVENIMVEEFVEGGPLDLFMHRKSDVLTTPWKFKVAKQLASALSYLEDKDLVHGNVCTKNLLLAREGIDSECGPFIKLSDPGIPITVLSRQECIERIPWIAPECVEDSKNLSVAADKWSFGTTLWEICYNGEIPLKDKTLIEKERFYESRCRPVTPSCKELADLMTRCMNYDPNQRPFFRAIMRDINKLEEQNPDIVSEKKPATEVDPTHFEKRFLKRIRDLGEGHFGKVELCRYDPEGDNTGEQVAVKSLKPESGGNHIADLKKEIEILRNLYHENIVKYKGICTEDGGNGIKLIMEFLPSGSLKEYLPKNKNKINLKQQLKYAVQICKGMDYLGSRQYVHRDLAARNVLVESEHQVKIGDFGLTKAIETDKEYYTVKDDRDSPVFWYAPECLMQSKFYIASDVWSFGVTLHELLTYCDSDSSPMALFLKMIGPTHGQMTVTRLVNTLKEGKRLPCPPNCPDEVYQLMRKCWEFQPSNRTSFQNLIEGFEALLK

## NVP-BHG712
[1]
  IC50: 9.6 µM
EphA2; pepsin, n = 3, read-out: IC50 EphA2;K646, peptic analysis
  IC50: 0.0205 µM
EphA2; trypsin, n = 3, read-out: IC50 EphA2;K646, tryptic analysis
  IC50: 0.017 µM
JAK2
  Interaction with ATP-binding pocket, JAK2;K882 signal across the concentration range: do not interact
JAK1
  Interaction with ATP-binding pocket, JAK1;K908 signal across the concentration range: do not interact
[2]
  MaxLFQ signal of XO44-bound NTRK3;K572 over the concentration range: stable MaxLFQ signal over the full concentration range
[3]
  IC50: 0.0021 µM
[4]
  Interaction with ATP-binding pocket, SRC;K298 signal across the concentration range: do not interact
MAP3K20
  IC50: 2.9 µM
LYN
  IC50: 13.4 µM
